Each block holds one compound with its values, some of them ahead of it.
Experiments:
SKOV-3 cells = assay: Degradation of tryptophan and 1-MT in SKOV-3 cell culture supernatants (TMT sixplex LC-MS/MS); assay type: in vitro ADME, human; conditions: for degradation to methyl-kynurenine: days 0-6, 1000 μM 1-MT with 70 μM tryptophan, or 200 μM 1-MT with no added tryptophan; for depletion of the substance from the media: after 6 days of incubation
Method: (§1) SKOV-3 ovarian carcinoma cells were cultured in McCoy's 5A Medium (BioConcept, Allschwil, Switzerland) supplemented with L-Tryptophan as indicated (Sigma-Aldrich, Taufkirchen, Germany), 300 mg/l Glutamine (Carl Roth, Karlsruhe, Germany), 10% FBS (Thermo Fisher Scientific Inc., Waltham, Mass., USA) and 100 U/mL penicillin and 100 μg/mL streptomycin (PAA Laboratories, Pasching, Austria). Human embryonic kidney (HEK) cells were cultured in DMEM (PAA Laboratories), 10% FBS (Thermo Scientific) and 100 U/mL penicillin and 100 μg/mL streptomycin (PAA Laboratories). Peripheral blood mononuclear cells (PBMC) were isolated from healthy, non-related blood-donors by density-gradient centrifugation using lymphocyte separation medium LSA 1077 (PAA Laboratories) and cultured in RPMI 1640 (PAA Laboratories) containing 10% FBS (Thermo Fisher Scientific Inc) and 100 U/mL penicillin and 100 μg/mL streptomycin (PAA Laboratories). For the generation of dendritic cells (DC), CD14+ cells were separated using the magnetic activated cell sorting (MACS) technology (Miltenyi Biotec, Bergisch Gladbach, Germany) and plated in RPMI 1640 (Cambrex, Verviers, Belgium) containing 10% FBS, 200 IU/mL interleukin-4 and 1000 IU/mL GM-CSF (Immunotools, Friesoythe, Germany) for 7 days. All cells were routinely tested for contamination by the Multiplex cell Contamination Test (44). Cultures were incubated at 37° C. in a 5% CO2 atmosphere. 20 mM stock solutions (of 1-methyl-D-tryptophan (1-D-MT, lot numbers: 09315BH, 08007EJ) and 1-methyl-L-tryptophan (1-L-MT, lot numbers: 08023HE, 15399MJ) (Sigma-Aldrich) were prepared by dissolving the inhibitors in 0.1 N NaOH. The pH was adjusted to 7.5 using hydrochloric acid. To avoid contamination of the cell cultures, the stock solutions were filtered through 0.2 μm filters. Interferon-gamma (IFN-g) was purchased from Immunotools (Friesoythe, Germany).
(§2) 50 μL of each single cell culture supernatant was labelled with TMT® sixplex reagents (Thermo Fisher Scientific).
The dry TMT® sixplex mixtures were reconstituted in 300 μL of water:acetonitrile 95:5 with 0.1% trifluoroacetic acid (buffer A). 150 μL were fractionated by reversed phase chromatography (Nucleosil 120-5 C18 column, 250 mm×4.6 mm, Macherey Nagel) using a Waters 2695 HPLC with UV detection at 214 nm. After loading, the sample was washed 4 min with buffer A. Then, the substances were eluted by increasing the acetonitrile content within 40 min to 55%. The flow rate was kept at 1.5 mL/min over the entire gradient. The fraction from 18-30 minutes was collected and dried.
(§3) Samples were either measured on a QTof II (Waters) mass spectrometer coupled to an UPLC nanoLC (Waters) on an LTQ Orbitrap Velos Pro (Thermo Scientific) coupled to a Proxeon nanoLC-II (Thermo Scientific) or a triple quadrupole system coupled to nanoLC-II (EASY-nLC II TSQ Vantage system). The samples were resolved in 150 μl 2% ACN, 0.1% formic acid (1 μL sample=1 μL mixed supernatant equivalent).
The SIM m/z range was from 350-500 Th with a resolution of 60000 and an AGC setting of 5e4 with a maximum scan time of 500 ms. MS/MS was acquired as TOP10 in HCD mode with a resolution of 7500 and an AGC setting of 5e4 with a maximum scan time of 500 ms. Isolation width was 1.5 amu and normalized collision energy was 60. The default charge state of the precursor was set to z=1. All other charge states were rejected. Analytes of interest were acquired in MSMS mode using an inclusion list only mode (±50 ppm) and all other analytes not included in the list were discarded.

TDO = molecular target: T1, TDO (Homo sapiens, UniProt P48775); assay: Degradation in supernatants of HEK cells expressing TDO; assay type: in vitro ADME; conditions: day 0 vs day 6
T1 construct: expressed in transfected cells; host or cells: HEK293 cells, neomycin-selected
Method: SKOV-3 ovarian carcinoma cells were cultured in McCoy's 5A Medium (BioConcept, Allschwil, Switzerland) supplemented with L-Tryptophan as indicated (Sigma-Aldrich, Taufkirchen, Germany), 300 mg/l Glutamine (Carl Roth, Karlsruhe, Germany), 10% FBS (Thermo Fisher Scientific Inc., Waltham, Mass., USA) and 100 U/mL penicillin and 100 μg/mL streptomycin (PAA Laboratories, Pasching, Austria). Human embryonic kidney (HEK) cells were cultured in DMEM (PAA Laboratories), 10% FBS (Thermo Scientific) and 100 U/mL penicillin and 100 μg/mL streptomycin (PAA Laboratories). […] All cells were routinely tested for contamination by the Multiplex cell Contamination Test (44). Cultures were incubated at 37° C. in a 5% CO2 atmosphere.
The full length cDNA sequence of IDO1 and TDO was cloned via Gateway® cloning into pDEST-Flag-C, a Gateway® compatible overexpression vector containing a single C-terminal FLAG-tag, resulting in pDEST-TDO-FLAG-C and pDEST-IDO1-FLAG-C.
Basis for the pDEST-FLAG-C was the pDEST26 vector (Invitrogen). The 6×His-tag of pDEST26 was removed with site-directed mutagenesis PCR, resulting in pDEST. The single C-terminal Flag-tag was introduced into pDEST, by site-directed mutagenesis PCR, resulting in Flag-C. […] Cells were selected using 1.5 mg/ml neomycin (Sigma-Aldrich).
as §2, §3

human dendritic cells = assay: 1-MT degradation in interferon-gamma stimulated human dendritic cells; assay type: in vitro ADME; conditions: IFN gamma, after 6 days of incubation
Method: as §1, §2, §3
Immune cells can also express tryptophan-degrading enzymes and tryptophan degradation is known to exert potent immunosuppressive effects (9). To assess whether also immune cells, such as dendritic cells, degrade 1-MT to methyl-kynurenine, three independent biological samples of supernatants of human dendritic cells from two different donors were analysed (only donor 1 shown). […]

[1] = molecular target: T2, aryl hydrocarbon receptor (Homo sapiens, UniProt P35869); assay: qRT-PCR of AHR target genes in SKOV-3 cells; assay type: cell-based
T2 construct: Treatment of SKOV-3 cells with 1-D/L-MT under tryptophan-free conditions induced the AHR target genes CYP1A1 and TIPARP; endogenous in cells; host or cells: SKOV-3 ovarian carcinoma cells
T2 sequence (P35869 11-848): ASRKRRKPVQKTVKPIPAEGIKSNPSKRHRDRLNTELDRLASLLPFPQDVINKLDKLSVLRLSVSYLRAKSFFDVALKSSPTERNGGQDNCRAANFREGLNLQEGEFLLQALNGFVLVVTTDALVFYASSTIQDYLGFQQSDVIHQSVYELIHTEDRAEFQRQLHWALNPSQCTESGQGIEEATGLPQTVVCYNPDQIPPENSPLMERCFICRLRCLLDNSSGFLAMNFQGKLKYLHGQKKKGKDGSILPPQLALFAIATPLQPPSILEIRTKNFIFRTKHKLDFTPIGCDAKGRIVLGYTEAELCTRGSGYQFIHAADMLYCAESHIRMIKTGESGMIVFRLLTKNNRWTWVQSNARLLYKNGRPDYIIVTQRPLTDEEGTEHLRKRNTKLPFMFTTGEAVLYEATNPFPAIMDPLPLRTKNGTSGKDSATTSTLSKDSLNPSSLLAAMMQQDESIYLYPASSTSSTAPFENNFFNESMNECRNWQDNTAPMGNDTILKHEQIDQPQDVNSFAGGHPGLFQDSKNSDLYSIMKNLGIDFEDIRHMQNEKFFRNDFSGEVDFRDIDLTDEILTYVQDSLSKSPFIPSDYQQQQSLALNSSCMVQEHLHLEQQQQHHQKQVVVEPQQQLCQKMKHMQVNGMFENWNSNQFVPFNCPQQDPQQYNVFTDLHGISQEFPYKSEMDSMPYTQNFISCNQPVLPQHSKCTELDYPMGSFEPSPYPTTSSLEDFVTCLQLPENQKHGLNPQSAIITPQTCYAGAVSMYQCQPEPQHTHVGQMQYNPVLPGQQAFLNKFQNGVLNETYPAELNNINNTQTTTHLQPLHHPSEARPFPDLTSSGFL
Method: as §1, with “20 mM stock solutions (of 1-methyl-D-tryptophan (1-D-MT, lot numbers: 09315BH, 08007EJ) and 1-methyl-L-tryptophan (1-L-MT, lot numbers: 08023HE, 15399MJ) (Sigma-Aldrich) were prepared by dissolving the inhibitors in 0.1 N NaOH. The pH was adjusted to 7.5 using hydrochloric acid. To avoid contamination of the cell cultures, the stock solutions were filtered through 0.2 μm filters. Interferon-gamma (IFN-g) was purchased from Immunotools (Friesoythe, Germany).” left out
Total RNA was isolated with the Qiagen RNAeasy RNA isolation kit (Hilden, Germany) and cDNA was synthesized with the Applied Biosystems reverse-transcription-Kit (Foster City, USA) according to manufacturer's instructions. […] The size of the amplicons was analyzed by loading the samples and a 100 bp ladder (Invitrogen, Leek, Netherlands) on a 2% agarose gel, which was then stained with ethidium bromide and analyzed under UV light. […] Relative quantification of gene expression was determined by comparison of threshold values. […]

[2] = Serum analysis of LPS-stimulated mice injected with 1-L-MT; conditions: 1 mg/mouse 1-L-MT i.p.
Method: Animal work was supervised by institutional animal protection officials in accordance with the National Institute of Health guidelines Guide for the Care and Use of Laboratory Animals. C57BL/6N mice were purchased from Charles River (Sulzfeld, Germany). […] The blood was centrifuged to obtain serum, which was finally prepared for LC-MS/MS measurements.
50 μL of serum sample was precipitated with 50 μL TCA-solution (60 g/l) at 4° C. overnight. The suspension was centrifuged for 15 minutes at 4° C. at 6000 g. The pellet was discarded and the supernatant used for further experiments after neutralization with 1 M NaOH to pH 7-8.
66 μL of each precipitated and neutralized mouse serum sample were diluted with 6 μL of 1M triethylammonium bicarbonate (TEAB, Sigma-Aldrich) and then 24 μL of a 60 mM TMT reagent stock solution in ACN (LichroSolv, VWR) were added. The reaction was incubated for 1 hour at room temperature and finally quenched by adding 12 μL of 2.5% aqueous hydroxylamine solution (Sigma-Aldrich). The respective six labelled serum samples to be compared were mixed and dried.
For the Orbitrap MS runs the mixed mouse serum sample was dissolved in 2% ACN, 0.1% formic acid and ˜0.88 μL of mixed serum equivalent was loaded on column.

HEK control cells (WT) = assay: Degradation in supernatants of HEK control cells (WT); assay type: in vitro ADME, human; conditions: data not shown
Method: SKOV-3 ovarian carcinoma cells were cultured in McCoy's 5A Medium (BioConcept, Allschwil, Switzerland) supplemented with L-Tryptophan as indicated (Sigma-Aldrich, Taufkirchen, Germany), 300 mg/l Glutamine (Carl Roth, Karlsruhe, Germany), 10% FBS (Thermo Fisher Scientific Inc., Waltham, Mass., USA) and 100 U/mL penicillin and 100 μg/mL streptomycin (PAA Laboratories, Pasching, Austria). Human embryonic kidney (HEK) cells were cultured in DMEM (PAA Laboratories), 10% FBS (Thermo Scientific) and 100 U/mL penicillin and 100 μg/mL streptomycin (PAA Laboratories). Peripheral blood mononuclear cells (PBMC) were isolated from healthy, non-related blood-donors by density-gradient centrifugation using lymphocyte separation medium LSA 1077 (PAA Laboratories) and cultured in RPMI 1640 (PAA Laboratories) containing 10% FBS (Thermo Fisher Scientific Inc) and 100 U/mL penicillin and 100 μg/mL streptomycin (PAA Laboratories). […]
Samples were either measured on a QTof II (Waters) mass spectrometer coupled to an UPLC nanoLC (Waters) on an LTQ Orbitrap Velos Pro (Thermo Scientific) coupled to a Proxeon nanoLC-II (Thermo Scientific) or a triple quadrupole system coupled to nanoLC-II (EASY-nLC II TSQ Vantage system). […]

[3] = SKOV-3 cells, tryptophan-free conditions, qRT-PCR

T1 sequence (P48775 whole entry): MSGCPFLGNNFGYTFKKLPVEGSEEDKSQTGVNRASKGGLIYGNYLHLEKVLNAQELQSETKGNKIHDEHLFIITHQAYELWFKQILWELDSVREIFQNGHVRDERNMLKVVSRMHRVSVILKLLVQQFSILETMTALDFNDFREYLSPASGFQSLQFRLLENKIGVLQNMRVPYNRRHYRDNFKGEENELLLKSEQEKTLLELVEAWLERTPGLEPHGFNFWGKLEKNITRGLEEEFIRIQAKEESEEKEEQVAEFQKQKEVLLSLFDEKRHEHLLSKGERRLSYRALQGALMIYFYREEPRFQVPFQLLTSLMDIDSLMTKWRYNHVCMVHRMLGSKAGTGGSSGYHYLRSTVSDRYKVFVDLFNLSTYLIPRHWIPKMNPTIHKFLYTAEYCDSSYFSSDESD

Compound: Cn1cc(C[C@@H](N)C(=O)O)c2ccccc21 [1-D-MT, 1-methyl-D-tryptophan]
- metabolism of tryptophan to kynurenine in treated samples (SKOV-3 cells; D-MT compared with L-MT samples): more quickly and higher kynurenine levels were reached
- degradation to methyl-kynurenine (SKOV-3 cells): degraded to methyl-kynurenine
- increase in methyl-kynurenine after treatment (TDO): not
- methyl-kynurenine in the media (human dendritic cells): increase in methyl-kynurenine
- reduction of substrate in the media (human dendritic cells): no clear reduction

Compound: Cn1cc(CC(N)C(=O)O)c2ccccc21 [1-D/L-MT]
- induction of AHR target gene CYP1A1 [1, 3]: induced
- induction of AHR target gene TIPARP [1, 3]: induced

Compound: Cn1cc(C[C@H](N)C(=O)O)c2ccccc21 [1-L-MT, 1-methyl-L-tryptophan]
- depletion of the substance from the media (SKOV-3 cells): completely depleted
- degradation to methyl-kynurenine (SKOV-3 cells): degraded more quickly than 1-D-MT
- increase in methyl-kynurenine after treatment (TDO): very slight increase
- methyl-kynurenine in the media (human dendritic cells): increase in methyl-kynurenine
- reduction of substrate in the media (human dendritic cells): reduction
- serum methyl-kynurenine versus mice treated with LPS alone [2]: significantly higher concentrations of methyl-kynurenine

Compound: CNc1ccccc1C(=O)C[C@H](N)C(=O)O [methyl-kynurenine, (S)—N-methyl kynurenine]
- activation of the AHR ([1]; inferred from treatment of SKOV-3 cells with 1-D/L-MT): capable of activating the AHR

Other lines, results leading:

- degradation by HEK control cells (HEK control cells (WT)): degraded neither
- degradation / decrease of substrate in cell supernatants (TDO): no decrease
Compound: Cn1cc(C[C@H](N)C(=O)O)c2ccccc21 [1-MT, 1-methyl-tryptophan]

- depletion of the substance from the media (SKOV-3 cells): not entirely depleted
Compound: N[C@H](Cc1c[nH]c2ccccc12)C(=O)O [D-tryptophan]

- depletion of the substance from the media (SKOV-3 cells): completely depleted
Compound: N[C@@H](Cc1c[nH]c2ccccc12)C(=O)O [L-tryptophan]

- degradation by HEK control cells (HEK control cells (WT)): degraded neither
- degradation / decrease of substrate in cell supernatants (TDO): degraded tryptophan to kynurenine
Compound: N[C@@H](Cc1c[nH]c2ccccc12)C(=O)O [tryptophan]

— US11320438B2, “Isotopic methods for measurement of tryptophan and metabolites thereof” (ELECTROPHORETICS LIMITED, priority 2015, dated 2022)
